# Assay results published in patent publication US8207142B2, “Inhibitor of DNA methylation” (priority 2001, dated 2012).
# Experiments:
# 10T1/2 cells = experiment: Induction of a myogenic phenotype (myotube formation) in 10T1/2 cells; format: cell-based, mouse; set-up: key to Muscle Formation: + representing minimal muscle formation; scored for muscle cells 9-10 days later as + to +++; +++ representing maximal muscle formation; conditions: for Muscle Formation: 24 hours treatment, scored 9-10 days later; for muscle formation (micrographs, in words): 10T1/2 cells, approximately 9-10 days after drug treatment
# Description: Cells were plated (3×10^5 cells/100-mm dish) and treated 24 hours later with the indicated concentrations of compounds. The medium was either changed 24 hours or 48 hours after drug treatment. Myotube formation was assayed in 10T1/2 cells as previously described (Constantinides et al., Nature 267:364-366, 1977). […] The ability of Zebularine to cause 10T1/2 cells to undergo the myogenic switch was therefore tested (FIG. 7).
# [1] = tested on: p16 gene expression in T24 cells; experiment: RT-PCR analysis of p16 expression in T24 cells; format: cell-based, human
# Description: The T24 cell line was obtained from the American Type Culture Collection (Rockville, Md.) and cultured in DMEM supplemented with 10% heat-inactivated fetal calf serum and 100 U/ml penicillin-streptomycin. Cultures were grown in a humidified incubator at 37° C. in an atmosphere of 5% CO2 in air.
# Cells were plated (3×10^5 cells/100-mm dish) and treated 24 hours later with the indicated concentrations of compounds. The medium was either changed 24 hours or 48 hours after drug treatment.
# DNA and RNA were isolated three days after treatment using the NucleoBond RNA/DNA Midi Kit (Clontech Laboratories, Inc., Palo Alto, Calif.).
# Total RNA (˜10 μg) was reverse-transcribed using the following reagents: 100 units RNAsin (Promega Corp., Madison, Wis.), 0.1 M DTT (Life Technologies, Inc.), 1000 units of MMLV-RT (Life Technologies, Inc.), 1 mM deoxynucleotide triphosphates (Boehringer Mannheim, Germany), 75 μg/ml BSA, 1× MMLV-RT buffer (Life Technologies, Inc.), and 0.025 ODU Random Hexamers (Amersham-Pharmacia Biotech, Piscataway, N.J.). The reaction mixture was incubated for 10 minutes at 25° C., 45 minutes at 42° C., 3 minutes at 90° C., and chilled for 5 minutes at 4° C., during which time 1.25 μl of MMLV-RT (200 U/μl) were added and the sample then incubated for 45 minutes at 42° C., 10 minutes at 75° C., and stored at −20° C.
# cDNA was amplified with primers specific for either p16 or GAPDH. Briefly, PCR reactions were performed in 25-μl volumes at 94° C. for 3 minutes, 28 cycles at 94° C. for 1 minute, 56° C. for 30 seconds, 72° C. for 40 seconds, and a final extension step at 72° C. for 5 min (p16 amplification), and 94° C. for 1 minute, 19 cycles at 94° C. for 1 minute, 58° C. for 30 seconds, 72° C. for 45 seconds, and a final extension step at 72° C. for 2 minutes (GAPDH amplification).
# PCR amplifications were performed with cDNA template concentration equivalent to 100 ng of RNA in 10% DMSO. All reactions were analyzed in the linear range of amplification. PCR products were resolved on 2% agarose gels and subsequently transferred to a nylon membrane (Zetaprobe; Bio-Rad, Richmond, Calif.) under alkaline conditions. All blots were hybridized with a γ-^32P-labeled internal oligonucleotide probe, using protocols previously described (Xiong and Laird, Nuc. Acids Res. 25:2532-2534, 1997).
# Since 5-Aza-CdR has been shown previously to induce p16 expression in a dose-dependent manner (Bender et al., Cancer Res. 58:95-101, 1998), the two ribonucleoside analogs 5-Aza-CR and Zeb were examined to determine their abilities to induce p16 expression (FIG. 8). Because Zeb is stable in aqueous solution, the effect of prolonging Zeb treatment on p16 expression was tested by treating these cells with different concentrations of Zeb for either 24 hours or 48 hours. RT-PCR was then performed to determine whether p16 gene was induced by drug treatment.
# p16 exon 2 = experiment: Ms-SNuPE quantitation of DNA methylation in T24 cells, p16 exon 2; format: cell-based, human; conditions: for p16 Exon 2 Methylation (%): control 96
# Description: The average methylation at defined CpG sites was quantitated using a Ms-SNuPE assay, as described by Gonzalgo and Jones (Nucleic Acids Res. 25:2529-2531, 1997) and U.S. Pat. No. 6,251,594. Briefly, genomic DNA (˜4 μg) was digested overnight with 4 units of EcoRI (Boehringer Mannheim) (p16 promoter/exon 1 and p16 exon 2; FIG. 9A) or with 4 units of RsaI (Boehringer Mannheim) (P3; FIG. 9B) to cut outside the region of interest.
# After standard treatment with sodium bisulfite, a PCR product of the region was generated as template for top-strand methylation analysis. The sequences of the primers used for bisulfite-treated DNA amplification were as follows: […]
# p16 exon 2: 94° C. for 3 minutes, 94° C. for 1 minute, 62° C. for 45 seconds, and 72° C. for 45 seconds for 40 cycles, with a final extension step at 72° C. for 10 minutes.
# Duplicates of 4 μl of template were then added to 6 μl of mixture consisting of 1× PCR buffer, 1 μM final concentration primers, 1 μCi of [^32P]dCTP or dTTP, and 1 unit 1:1 Taq/TaqStart antibody (Clontech, Palo Alto, Calif.). Single nucleotide extension involved incubation at 95° C. for 1 minute, then 50° C. for 2 minutes, and finally 72° C. for 1 minute (p16 promoter/exon1 and P16 exon 2) and 95° C. for 1 minute, then 46° C. for 30 seconds, and finally 72° C. for 20 seconds (P3). The sequences for SNuPE primers were as follows: […]
# After briefly spinning down the tubes, 4 μl of stop solution were added to the 10-μl reaction volume, and the samples were boiled for 5 minutes at 95° C. before loading 1.5 μl onto a 15% denaturing polyacrylamide gel (7 M urea). The gel was run at 90 W for 1.5 hours and then dried at 80° C. for 40 minutes. The gel was exposed to a phosphorimaging cassette for quantitation of the ratio of [^32P]dCTP versus [^32P]dTTP incorporation, and the quantitation of the percent methylation was averaged from three separate CpG sites. The gel was then exposed to BioMax MR film (Kodak) to record experimental results.
# T24 cells = experiment: Colony-formation assay (decrease in plating efficiency) in T24 cells; format: cell-based, human
# Description: The percentage cell survival was assessed by dividing the mean colony number on the treated plates divided by the mean colony number on the untreated plates ×100.
structure (smiles),measurement,setting,value
"Nc1ncn([C@@H]2O[C@H](CO)[C@@H](O)[C@H]2O)c(=O)n1 [5-Aza-CR, 5-azacytidine, reference compound]",Muscle Formation,10T1/2 cells; 1 μM,++
same,Muscle Formation,10T1/2 cells; 3 μM,+++
same,"muscle formation (micrographs, in words)",10T1/2 cells,formed multinucleated myotubes
same,p16 expression (RT-PCR),[1]; 3 μM,no expression
same,p16 expression (RT-PCR),[1]; 100 μM,significant expression
same,highest p16 expression level relative to that with 3 μM 5-Aza-CdR,[1]; 100 μM 5-Aza-CR vs 3 μM 5-Aza-CdR,one-fifth
same,Relative p16 Exon 2 De-methylation (%),"p16 exon 2; 3 μM, 24 hrs",8 +/− 2%
same,p16 Exon 2 Methylation (%),"p16 exon 2; 3 μM, 24 hrs",88 +/− 2%
same,Relative p16 Exon 2 De-methylation (%),"p16 exon 2; 10 μM, 24 hrs",15 +/− 1%
same,p16 Exon 2 Methylation (%),"p16 exon 2; 10 μM, 24 hrs",82 +/− 1%
same,Relative p16 Exon 2 De-methylation (%),"p16 exon 2; 30 μM, 24 hrs",25%
same,p16 Exon 2 Methylation (%),"p16 exon 2; 30 μM, 24 hrs",72 +/− 2%
same,Relative p16 Exon 2 De-methylation (%),"p16 exon 2; 100 μM, 24 hrs",29%
same,p16 Exon 2 Methylation (%),"p16 exon 2; 100 μM, 24 hrs",68 +/− 3%
same,Toxicity (%) (decrease in plating efficiency),"T24 cells; 3 μM, 24 hrs",2%
same,Toxicity (%) (decrease in plating efficiency),"T24 cells; 10 μM, 24 hrs",12%
same,Toxicity (%) (decrease in plating efficiency),"T24 cells; 30 μM, 24 hrs",30%
same,Toxicity (%) (decrease in plating efficiency),"T24 cells; 100 μM, 24 hrs",54%
"O=c1ncccn1[C@@H]1O[C@H](CO)[C@@H](O)[C@H]1O [Zebularine, 1-β-ribofuranosyl-1,2-dihydropyrimidin-2-one]",Muscle Formation,10T1/2 cells; 10 μM,+
same,Muscle Formation,10T1/2 cells; 30 μM,++
same,"muscle formation (micrographs, in words)",10T1/2 cells,induced muscle formation in 10T1/2 cells
same,p16 expression (RT-PCR),[1]; 300 μM for 24 hours,insufficient to induce p16 expression
same,p16 expression (RT-PCR),[1]; 300 μM for 48 hours,p16 expression was induced
same,p16 expression (RT-PCR),[1]; 500 μM for 24 hours,p16 expression was induced
same,Relative p16 Exon 2 De-methylation (%),"p16 exon 2; 300 μM, 24 hrs",7 +/− 1%
same,p16 Exon 2 Methylation (%),"p16 exon 2; 300 μM, 24 hrs",89 +/− 1%
same,Relative p16 Exon 2 De-methylation (%),"p16 exon 2; 300 μM, 48 hrs",16 +/− 2%
same,p16 Exon 2 Methylation (%),"p16 exon 2; 300 μM, 48 hrs",81 +/− 2%
same,Relative p16 Exon 2 De-methylation (%),"p16 exon 2; 500 μM, 24 hrs",9 +/− 1%
same,p16 Exon 2 Methylation (%),"p16 exon 2; 500 μM, 24 hrs",87 +/− 1%
same,Relative p16 Exon 2 De-methylation (%),"p16 exon 2; 500 μM, 48 hrs",18 +/− 2%
same,p16 Exon 2 Methylation (%),"p16 exon 2; 500 μM, 48 hrs",79 +/− 2%
same,Relative p16 Exon 2 De-methylation (%),"p16 exon 2; 1000 μM, 24 hrs",20 +/− 2%
same,p16 Exon 2 Methylation (%),"p16 exon 2; 1000 μM, 24 hrs",77 +/− 2%
same,Relative p16 Exon 2 De-methylation (%),"p16 exon 2; 1000 μM, 48 hrs",24 +/− 1%
same,p16 Exon 2 Methylation (%),"p16 exon 2; 1000 μM, 48 hrs",73 +/− 1%
same,Toxicity (%) (decrease in plating efficiency),"T24 cells; 300 μM, 24 hrs",1%
same,Toxicity (%) (decrease in plating efficiency),"T24 cells; 300 μM, 48 hrs",2%
same,Toxicity (%) (decrease in plating efficiency),"T24 cells; 500 μM, 24 hrs",7%
same,Toxicity (%) (decrease in plating efficiency),"T24 cells; 500 μM, 48 hrs",8%
same,Toxicity (%) (decrease in plating efficiency),"T24 cells; 1000 μM (1 mM), 48 hrs",23%
same,Toxicity (%) (decrease in plating efficiency),"T24 cells; 1000 μM, 24 hrs",18%
